Reference: US20220106271A1, “2-BROMO-6-ALKOXYPHENYL-SUBSTITUTED PYRROLIN-2-ONES AND THEIR USE AS HERBICIDES” (Bayer Aktiengesellschaft, priority 2018, published 2022)

Columns and labels:
Type in all cases: in vivo
Avena fatua [1] = assay: Post-emergence herbicidal effect, greenhouse pot test; details: 80 g/ha, post-emergence at one-leaf stage, assessed visually after about 3 weeks; 100% = plants have died, 0% = like control plants
Experimental: (§1) Seeds of monocotyledonous and dicotyledonous weed and crop plants are laid out in sandy loam soil in wood-fibre pots, covered with soil and cultivated in a greenhouse under good growth conditions. 2 to 3 weeks after sowing, the test plants are treated at the one-leaf stage. The compounds of the invention, formulated in the form of wettable powders (WP) or as emulsion concentrates (EC), are then sprayed onto the green parts of the plants as aqueous suspension or emulsion at a water application rate equating to 600 to 800 L/ha with addition of 0.2% wetting agent. After the test plants have been left to stand in the greenhouse under optimal growth conditions for about 3 weeks, the action of the preparations is assessed visually in comparison to untreated controls (herbicidal action in percent (%): 100% activity=the plants have died, 0% activity=like control plants).

Hordeum murinum [2] = assay: as above; details: 80 g/ha, post-emergence at one-leaf stage, assessed visually after about 3 weeks; 100% = plants have died, 0% = like control plants
Experimental: as §1

Echinochloa crus-galli [3] = assay: as above; details: 80 g/ha, post-emergence at one-leaf stage, assessed visually after about 3 weeks; 100% = plants have died, 0% = like control plants
Experimental: as §1

Setaria viridis [4] = assay: as above; details: 80 g/ha, post-emergence at one-leaf stage, assessed visually after about 3 weeks; 100% = plants have died, 0% = like control plants
Experimental: as §1

Lolium rigidum [5] = assay: as above; details: 80 g/ha, post-emergence at one-leaf stage, assessed visually after about 3 weeks; 100% = plants have died, 0% = like control plants
Experimental: as §1

Alopecurus myosuroides [6] = assay: as above; details: 80 g/ha, post-emergence at one-leaf stage, assessed visually after about 3 weeks; 100% = plants have died, 0% = like control plants
Experimental: as §1

Avena fatua [7] = assay: Pre-emergence herbicidal effect, greenhouse pot test; details: 320 g/ha, scored visually after 3 weeks, 100% = plants have died, 0% = like control plants
Text: (§2) 1. Pre-emergence herbicidal effect and crop plant compatibility Seeds of monocotyledonous and dicotyledonous weed plants and crop plants are laid out in sandy loam soil in wood-fibre pots and covered with soil. The compounds of the invention, formulated in the form of wettable powders (WP) or as emulsion concentrates (EC), are then applied to the surface of the covering soil as aqueous suspension or emulsion at a water application rate equating to 600 to 800 L/ha with addition of 0.2% wetting agent.
(§3) After the treatment, the pots are placed in a greenhouse and kept under good growth conditions for the trial plants. The damage to the test plants is scored visually after a test period of 3 weeks by comparison with untreated controls (herbicidal activity in percent (%): 100% activity=the plants have died, 0% activity=like control plants).

Hordeum murinum [8] = assay: as above; details: scored visually after 3 weeks, dosage 320 g/ha printed only in the upper half of Table 2
Text: as §2, §3

Viola tricolor = assay: as above; details: scored visually after 3 weeks, dosage 320 g/ha printed only in the upper half of Table 2
Text: as §2, §3

Cyperus esculentus = assay: as above; details: 320 g/ha, scored visually after 3 weeks, 100% = plants have died, 0% = like control plants
Text: as §2, §3

Echinochloa crus-galli [9] = assay: as above; details: 320 g/ha, scored visually after 3 weeks, 100% = plants have died, 0% = like control plants
Text: as §2, §3

Polygonum convolvulus = assay: as above; details: scored visually after 3 weeks, dosage 320 g/ha printed only in the upper half of Table 2
Text: as §2, §3

Setaria viridis [10] = assay: as above; details: 320 g/ha, scored visually after 3 weeks, 100% = plants have died, 0% = like control plants
Text: as §2, §3

Lolium rigidum [11] = assay: as above; details: 320 g/ha, scored visually after 3 weeks, 100% = plants have died, 0% = like control plants
Text: as §2, §3

Veronica persica = assay: as above; details: scored visually after 3 weeks, dosage 320 g/ha printed only in the upper half of Table 2
Text: as §2, §3

Alopecurus myosuroides [12] = assay: as above; details: 320 g/ha, scored visually after 3 weeks, 100% = plants have died, 0% = like control plants
Text: as §2, §3

Amaranthus retroflexus = assay: as above; details: scored visually after 3 weeks, dosage 320 g/ha printed only in the upper half of Table 2
Text: as §2, §3

Abutylon threophrasti = assay: as above; details: scored visually after 3 weeks, dosage 320 g/ha printed only in the upper half of Table 2
Text: as §2, §3

Stellaria media = assay: as above; details: scored visually after 3 weeks, dosage 320 g/ha printed only in the upper half of Table 2
Text: as §2, §3

| Compound | Post-emergence action AVEFA (herbicidal action in percent) (Avena fatua [1]) [%] | Post-emergence action HORMU (herbicidal action in percent) (Hordeum murinum [2]) [%] | Post-emergence action ECHCG (herbicidal action in percent) (Echinochloa crus-galli [3]) [%] | Post-emergence action SETVI (herbicidal action in percent) (Setaria viridis [4]) [%] | Post-emergence action LOLRI (herbicidal action in percent) (Lolium rigidum [5]) [%] | Post-emergence action ALOMY (herbicidal action in percent) (Alopecurus myosuroides [6]) [%] | Pre-emergence action AVEFA (herbicidal activity in percent) (Avena fatua [7]) [%] | Pre-emergence action HORMU (herbicidal activity in percent) (Hordeum murinum [8]) [%] | Pre-emergence action VIOTR (herbicidal activity in percent) (Viola tricolor) [%] | Pre-emergence action CYPES (herbicidal activity in percent) (Cyperus esculentus) [%] | Pre-emergence action ECHCG (herbicidal activity in percent) (Echinochloa crus-galli [9]) [%] | Pre-emergence action POLCO (herbicidal activity in percent) (Polygonum convolvulus) [%] | Pre-emergence action SETVI (herbicidal activity in percent) (Setaria viridis [10]) [%] | Pre-emergence action LOLRI (herbicidal activity in percent) (Lolium rigidum [11]) [%] | Pre-emergence action VERPE (herbicidal activity in percent) (Veronica persica) [%] | Pre-emergence action ALOMY (herbicidal activity in percent) (Alopecurus myosuroides [12]) [%] | Pre-emergence action AMARE (herbicidal activity in percent) (Amaranthus retroflexus) [%] | Pre-emergence action ABUTH (herbicidal activity in percent) (Abutylon threophrasti) [%] | Pre-emergence action STEME (herbicidal activity in percent) (Stellaria media) [%] |
| --- | --- | --- | --- | --- | --- | --- | --- | --- | --- | --- | --- | --- | --- | --- | --- | --- | --- | --- | --- |
| CC#Cc1cc(Br)c(C2=C(O)C3(CCC(OC)CC3)NC2=O)c(OC)c1 (single isomer, unassigned) [Example 1.2] | 90 | 100 | 100 | 90 | 90 | 90 | 100 | 100 | 100 | 100 | 100 | 100 | 100 | 100 | 100 | 100 | 100 | 100 | 100 |
| CC#Cc1cc(Br)c(C2=C(OC(=O)C(C)C)C3(CCC(OC)CC3)NC2=O)c(OC)c1 (stereo not drawn) [Example 1.4] | 90 | 100 | 90 | 90 | 100 | 90 | 100 | 100 | 100 | 100 | 100 | 100 | 100 | 100 | 100 | 100 | 100 | 100 | 100 |
| CC#Cc1cc(Br)c(C2=C(O)C3(CCC(OC)CC3)NC2=O)c(OC)c1 (single isomer, unassigned) [Example 1.1, 3-[2-Bromo-6-methoxy-4-(prop-1-yn-1-yl)phenyl]-4-hydroxy-8-methoxy-1-azaspiro[4.5]dec-3-en-2-one] | 100 | 100 | 100 | 90 | 100 | 90 | – | 100 | 100 | 100 | 100 | 100 | 100 | 100 | 100 | 100 | 100 | 100 | 100 |
| CC#Cc1cc(Br)c(C2=C(OC(=O)OCC)C3(CCC(OC)CC3)NC2=O)c(OC)c1 (stereo not drawn) [Example 1.3, 3-[2-Bromo-6-methoxy-4-(prop-1-yn-1-yl)phenyl]-8-methoxy-2-oxo-1-azaspiro[4.5]dec-3-en-4-yl ethyl carbonate] | 90 | 100 | 100 | 90 | 100 | 90 | 100 | 100 | 100 | 100 | 100 | 100 | 100 | 100 | 100 | 100 | 100 | 100 | 100 |
